Laboratory results taken from PubChem BioAssay (NCI).
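Protocol summary: plate cells (96-well), add compound at 5 concentrations, incubate 48 h, interpolate endpoints linearly. The concentration for 50% growth inhibition is given as GI50. Definition used: TGI = concentration required for complete inhibition of growth.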

Assays:
Experiment in all cases: NCI tumour cell line growth inhibition, 48 h
A498 renal = tested on: A498 renal
TK-10 renal = tested on: TK-10 renal
UACC-62 melanoma = tested on: UACC-62 melanoma
MDA-MB-435 = tested on: MDA-MB-435
MALME-3M melanoma = tested on: MALME-3M melanoma
EKVX NSCLC = tested on: EKVX NSCLC
SW-620 colon = tested on: SW-620 colon
T-47D breast = tested on: T-47D breast
HCC-2998 colon = tested on: HCC-2998 colon
SNB-75 CNS = tested on: SNB-75 CNS
ACHN renal = tested on: ACHN renal
PC-3 prostate = tested on: PC-3 prostate
LOX IMVI melanoma = tested on: LOX IMVI melanoma
OVCAR-4 ovarian = tested on: OVCAR-4 ovarian
SK-MEL-5 melanoma = tested on: SK-MEL-5 melanoma
NCI-H23 lung = tested on: NCI-H23 lung
K-562 leukemia = tested on: K-562 leukemia
NCI-H226 lung = tested on: NCI-H226 lung
NCI-H460 lung = tested on: NCI-H460 lung
SF-295 CNS = tested on: SF-295 CNS
CCRF-CEM leukemia = tested on: CCRF-CEM leukemia
SF-268 CNS = tested on: SF-268 CNS
HS 578T breast = tested on: HS 578T breast
SK-OV-3 ovarian = tested on: SK-OV-3 ovarian
KM12 colon = tested on: KM12 colon
HCT-116 colon = tested on: HCT-116 colon
MOLT-4 leukemia = tested on: MOLT-4 leukemia
SK-MEL-2 melanoma = tested on: SK-MEL-2 melanoma
OVCAR-5 ovarian = tested on: OVCAR-5 ovarian
OVCAR-3 ovarian = tested on: OVCAR-3 ovarian
COLO 205 colon = tested on: COLO 205 colon
HOP-92 NSCLC = tested on: HOP-92 NSCLC
NCI-H522 lung = tested on: NCI-H522 lung
SF-539 CNS = tested on: SF-539 CNS
NCI/ADR-RES ovarian = tested on: NCI/ADR-RES ovarian
OVCAR-8 ovarian = tested on: OVCAR-8 ovarian
MDA-MB-231 breast = tested on: MDA-MB-231 breast
HL-60(TB) leukemia = tested on: HL-60(TB) leukemia
M14 melanoma = tested on: M14 melanoma
UACC-257 melanoma = tested on: UACC-257 melanoma
DU-145 prostate = tested on: DU-145 prostate
SN12C renal = tested on: SN12C renal
HT29 colon = tested on: HT29 colon
786-0 renal = tested on: 786-0 renal
SNB-19 CNS = tested on: SNB-19 CNS
BT-549 breast = tested on: BT-549 breast
U251 CNS = tested on: U251 CNS
HCT-15 colon = tested on: HCT-15 colon
RPMI-8226 leukemia = tested on: RPMI-8226 leukemia
UO-31 renal = tested on: UO-31 renal
MCF7 breast = tested on: MCF7 breast
CAKI-1 renal = tested on: CAKI-1 renal
HOP-62 NSCLC = tested on: HOP-62 NSCLC
RXF 393 renal = tested on: RXF 393 renal

CCn1cc(C(=O)N/N=C/c2ccc(Br)cc2)c(=O)c2cc(F)c(N3CCNC(C)C3)c(F)c21 (stereo not drawn)
GI50 (A498 renal): 1.78 µM | TGI (A498 renal): 5.3 µM | GI50 (TK-10 renal): 1.74 µM | TGI (TK-10 renal): 3.17 µM | GI50 (UACC-62 melanoma): 1.88 µM | TGI (UACC-62 melanoma): 3.36 µM | GI50 (MDA-MB-435): 1.73 µM | TGI (MDA-MB-435): 3.15 µM | GI50 (MALME-3M melanoma): 1.78 µM | TGI (MALME-3M melanoma): 3.42 µM | GI50 (EKVX NSCLC): 1.59 µM | TGI (EKVX NSCLC): 3.11 µM | GI50 (SW-620 colon): 1.71 µM | TGI (SW-620 colon): 3.18 µM | GI50 (T-47D breast): 1.65 µM | TGI (T-47D breast): 3.47 µM | GI50 (HCC-2998 colon): 1.88 µM | TGI (HCC-2998 colon): 3.57 µM | GI50 (SNB-75 CNS): 1.57 µM | TGI (SNB-75 CNS): 2.99 µM | GI50 (ACHN renal): 1.69 µM | TGI (ACHN renal): 3.06 µM | GI50 (PC-3 prostate): 1.62 µM | TGI (PC-3 prostate): 3.14 µM | GI50 (LOX IMVI melanoma): 1.75 µM | TGI (LOX IMVI melanoma): 3.25 µM | GI50 (OVCAR-4 ovarian): 2.48 µM | TGI (OVCAR-4 ovarian): 7.54 µM | GI50 (SK-MEL-5 melanoma): 1.94 µM | TGI (SK-MEL-5 melanoma): 4.03 µM | GI50 (NCI-H23 lung): 1.84 µM | TGI (NCI-H23 lung): 3.54 µM | GI50 (K-562 leukemia): 1.5 µM | TGI (K-562 leukemia): 3.17 µM | GI50 (NCI-H226 lung): 2.15 µM | TGI (NCI-H226 lung): 6.13 µM | GI50 (NCI-H460 lung): 1.61 µM | TGI (NCI-H460 lung): 3.16 µM | GI50 (SF-295 CNS): 1.85 µM | TGI (SF-295 CNS): 3.51 µM | GI50 (CCRF-CEM leukemia): 1.49 µM | TGI (CCRF-CEM leukemia): 3.52 µM | GI50 (SF-268 CNS): 1.78 µM | TGI (SF-268 CNS): 3.45 µM | GI50 (HS 578T breast): 1.99 µM | TGI (HS 578T breast): 5.9 µM | GI50 (SK-OV-3 ovarian): 1.93 µM | TGI (SK-OV-3 ovarian): 3.68 µM | GI50 (KM12 colon): 1.86 µM | TGI (KM12 colon): 3.5 µM | GI50 (HCT-116 colon): 1.54 µM | TGI (HCT-116 colon): 3.16 µM | GI50 (MOLT-4 leukemia): 1.68 µM | TGI (MOLT-4 leukemia): 3.47 µM | GI50 (SK-MEL-2 melanoma): 2.02 µM | TGI (SK-MEL-2 melanoma): 4.1 µM | GI50 (OVCAR-5 ovarian): 1.73 µM | TGI (OVCAR-5 ovarian): 3.22 µM | GI50 (OVCAR-3 ovarian): 1.79 µM | TGI (OVCAR-3 ovarian): 3.38 µM | GI50 (COLO 205 colon): 1.76 µM | TGI (COLO 205 colon): 3.42 µM | GI50 (HOP-92 NSCLC): 1.21 µM | TGI (HOP-92 NSCLC): 2.58 µM | GI50 (NCI-H522 lung): 1.85 µM | TGI (NCI-H522 lung): 3.55 µM | GI50 (SF-539 CNS): 1.69 µM | TGI (SF-539 CNS): 3.1 µM | GI50 (NCI/ADR-RES ovarian): 1.95 µM | TGI (NCI/ADR-RES ovarian): 3.69 µM | GI50 (OVCAR-8 ovarian): 1.74 µM | TGI (OVCAR-8 ovarian): 3.32 µM | GI50 (MDA-MB-231 breast): 1.84 µM | TGI (MDA-MB-231 breast): 3.37 µM | GI50 (HL-60(TB) leukemia): 1.88 µM | TGI (HL-60(TB) leukemia): 3.8 µM | GI50 (M14 melanoma): 1.91 µM | TGI (M14 melanoma): 3.59 µM | GI50 (UACC-257 melanoma): 1.68 µM | TGI (UACC-257 melanoma): 3.21 µM | GI50 (DU-145 prostate): 1.74 µM | TGI (DU-145 prostate): 3.18 µM | GI50 (SN12C renal): 1.57 µM | TGI (SN12C renal): 3.01 µM | GI50 (HT29 colon): 1.68 µM | TGI (HT29 colon): 3.18 µM | GI50 (786-0 renal): 1.68 µM | TGI (786-0 renal): 3.21 µM | GI50 (SNB-19 CNS): 1.7 µM | TGI (SNB-19 CNS): 3.08 µM | GI50 (BT-549 breast): 1.59 µM | TGI (BT-549 breast): 3.23 µM | GI50 (U251 CNS): 1.66 µM | TGI (U251 CNS): 3.12 µM | GI50 (HCT-15 colon): 1.44 µM | TGI (HCT-15 colon): 2.93 µM | GI50 (RPMI-8226 leukemia): 1.85 µM | TGI (RPMI-8226 leukemia): 3.82 µM | GI50 (UO-31 renal): 1.56 µM | TGI (UO-31 renal): 2.92 µM | GI50 (MCF7 breast): 1.56 µM | TGI (MCF7 breast): 3.13 µM | GI50 (CAKI-1 renal): 1.68 µM | TGI (CAKI-1 renal): 3.08 µM | GI50 (HOP-62 NSCLC): 1.72 µM | TGI (HOP-62 NSCLC): 3.17 µM | GI50 (RXF 393 renal): 1.63 µM | TGI (RXF 393 renal): 3.07 µM
